We go through four compounds from patent US20220257552A1, “METHODS OF PRESCREENING AND TREATING BREAST CANCERS WITH SELECTIVE ANDROGEN RECEPTOR MODULATORS” (priority 2021, published 2022).

The subject of one test is BR-0001 TNBC. Kind of test: BR-0001 AR-positive TNBC xenograft in NSG mice. The format is in vivo. The settings on record: 10 mg/kg/day Formula IX or enzalutamide orally. How it is done:
Xenograft experiment. NSG mice obtained from JAX labs were housed with five animals per cage and were allowed free access to tap water and commercial rat chow (Harlan Teklad 22/5 rodent diet—8640). During the course of the study, the animals were maintained on a 12 hr light:dark cycle. Animals were anesthetized and BR-0001 TNBC fragments of 1 mm^3 (approximately) were implanted subcutaneously in NSG mice. […] Tumor volume was measured thrice weekly. Tumor volume was calculated using the formula length×width×width×0.5236. Once tumors reached greater than 1500-2000 mm^3, animals were sacrificed and tumors weighted and stored for various analysis. Two regions of the same BR-0001 tumor, an AR-positive TNBC xenograft, were immunohistochemically stained with AR antibody (AR N20 from SCBT) (FIGS. 26A and 26B) and compared to an AR-negative (FIG. 26C) TNBC as a negative control. […] The tumor xenograft efficacy experimental results are provided in 27A-27C, with FIGS. 27A and 27B being replicate experiments.
Tumors from replicate experiment 2 (FIG. 27B) were fixed in formalin and paraffin embedded. Slides were cut and stained with Ki-67 antibody. Ki-67 positive cells (total 200 cells were counted in each slide) in each slide were counted and represented as % stained cells, as shown in FIG. 28B.

The next test concerns HCI-7 PDX. Kind of test: HCI-7 (HCI-007) patient-derived xenograft in NSG mice. The format is in vivo. The note with it: Formula IX 10 mg/kg, enzalutamide 20 mg/kg, orally, vs vehicle. On the procedure:
HCI-007 tumor pieces (1 mm^3) were implanted surgically (one per mouse) under the skin on the flanks of NSG mice. Simultaneously, 17β-estradiol pellet (Innovative Research of America) was implanted surgically under the skin of each mouse. Tumors were allowed to grow and reach approximately 100 mm^3 volume (1*W*W*0.526). […] Tumor volume was measured weekly and represented as % change in tumor volume (FIG. 32). Mice were sacrificed and tumors stored for further analysis.
(§1) All animal protocols were approved by The University of Tennessee Health Science Center (UTHSC) Institutional Animal Care and Use Research Committee. Xenograft experiments were performed as previously published (Narayanan et al. (2014) PLoS One 9, e103202). Briefly, 3 million MCF-7 cells were suspended in 0.05 ml MEM+10% FBS and 0.05 ml Matrigel/nude mouse and were injected subcutaneously. Once the tumor size reached 100-200 mm^3, the animals were randomized and treated orally with the indicated drugs formulated in DMSO:PEG-300 (15:85). HCI-7, HCI-9, and HCI-13 PDXs were gifts kindly donated by Dr. Alana Welm (Huntsman Cancer Institute, Salt Lake City, Utah). HCI PDX tumor fragments (1 mm^3) were surgically implanted under the mammary fat pad in female NOD SCID Gamma (NSG) mice. Tumor volume was measured twice weekly for MCF-7 xenograft and once or twice weekly for HCI PDXs. At the end of the study, animals were sacrificed and tumors were excised, weighed, and stored for various analyses.
From the several PDXs available, three AR-positive PDXs were identified, based on gene expression profile. […] The enzalutamide dose was selected based on previous published experiments (Park et al. (2016) Cancer Invest 34, 517-520; Pollock et al. (2016) Nat Chem Biol 12, 795-801) as well as from internal experiments conducted in prostate cancer xenografts and in Hershberger studies.
In general terms: Xenograft models place foreign cells or tissue in a host animal.

The test system of a further test is HCI-9 PDX. Kind of test: HCI-9 patient-derived xenograft in NSG mice. The settings on record: Formula IX 10 mpk, enzalutamide 30 mpk p.o. It counts as in vivo. On the procedure: as §1
To determine if the same effect is observed in an AR-positive, but ER-negative breast cancer, HCI-9 tumor fragments were implanted under the mammary fat pad of NSG mice.

A further test relates to MCF-7-GFP cells. It counts as cell-based, human. The note with it: 10 days. The source says:
Tumor microenvironment contains tumor epithelial cells, stromal cells, cancer-associated fibroblasts (CAFs), and endothelial cells. The collective function of these cells promotes the aggressive growth of tumors due to secretion of paracrine factors. The CAFs are important for the sustained growth of cancers, and they differ from normal fibroblasts in their capacity to secrete factors that promote proliferation of cancer cells. […] Medium was collected over a period of 10 days and pooled. CAFs were stained with SRB to evaluate the effect of AR ligands on proliferation.
Conditioned medium was replaced on days 4 and 7 and the cells were stained with SRB to measure viability.

Test [1] has as its system TNBC. The settings on record: with nab-paclitaxel; cited from earlier work.
Test [2] has as its system TNBC. The settings on record: plus chemotherapy arm; cited from earlier work.
Another test relates to HCI-13 tumor fragments. Kind of test: HCI-13 ex vivo sponge culture, real time PCR. It counts as cell-based. The note with it: 10 nM DHT, 1 μM Formula IX, 100 nM fulvestrant, 3 days. How it is done: (§2) HCI-13 tumors grown in female mice were allowed to reach 500-1000 mm^3 before the animals were sacrificed and the tumors were excised to be used for sponge culture. Patient specimens frozen in liquid nitrogen in freezing medium were used for sponge culture. […] Tumors were sliced into small pieces (˜1 mm^3) and incubated on pre-soaked gelatin sponges (5 fragments/sponge) in 12 well plates containing 1.5 mL medium (MEM+10% FBS+2 mM L-glutamine+10 μg/mL insulin+10 μg/mL hydrocortisone+penicillin:streptomycin). The cultures were performed in triplicates for HCI-13 and singly for patient specimens. Pooled samples (n=5/sponge) from each sponge constituted one sample. Tissues were harvested after 3 days of treatment, RNA extracted, and expression of various genes measured. Although the same procedure was adopted for specimens obtained from breast cancer patients, the specimens were cultured singly (n=5/sponge=one sample) and not in triplicates as performed for HCI-13.

The target in the next test is HCI-13 ER-α (Homo sapiens, UniProt P03372, Y537S). The note with it: 10 nM fulvestrant or 1 μM tamoxifen with 0.1 nM estradiol. How it is done:
(§3) After 6 days of treatment, cells were harvested, and the number of cells was counted. […] Medium was changed after 3 days and re-treated. Cells were fixed after 6 days of treatment and the cell viability was measured by SRB assay. […] Medium was changed, and the cells were re-treated on days 4 and 7. Medium was collected, pooled from triplicates, and stored in −80° C. After 10 days of treatment, cells were fixed, and cell viability was measured using SRB. MCF-7 cells stably transfected with GFP (MCF-7-GFP) were plated in growth medium. Twenty-four hours after plating, cells were fed with the conditioned medium obtained from patient-derived fibroblasts as indicated above. Cells were fed for 10 days with conditioned medium, with medium changed on days 4 and 7. After 10 days of treatment, cells were fixed, and the viability was measured by SRB assay. […] AR-positive, but ER-negative HCI-9 PDX was surgically implanted as 1 mm^3 fragments under the mammary fat pad in NSG mice (n=8-10/group). […] Tumor volume was measured thrice weekly. […] ER-α from HCI-13 was cloned into pCR3.1 vector. Wildtype ER-α and HCI-13 ER-α, ERE-LUC, and CMV-LUC were transfected into COS-1 cells using lipofectamine. […] Twenty four hours after treatment cells were harvested and luciferase assay was performed. […] Values are expressed as average±S.E. from n=3-4/data point.

The next test has as its target Wildtype ER-α (Homo sapiens, UniProt P03372). The note with it: 10 nM fulvestrant or 1 μM tamoxifen with 0.1 nM estradiol. How it is done:
as §3

The test system of test [3] is breast cancer specimens obtained from patients. Kind of test: Breast cancer patient specimens, ex vivo sponge culture. It counts as cell-based, human. The settings on record: 1 μM Formula IX, 100 nM fulvestrant, 3 days. On the procedure:
Specimens from breast cancer patients were collected with patient consent under a protocol approved by the UTHSC Institutional Review Board (IRB). Specimens were collected immediately after surgery in RPMI medium containing penicillin:streptomycin and Fungizone and transported to the laboratory on ice. The tissues were finely minced and treated with collagenase for 2 hours.
as §2
Like other cancers, breast cancer is also heterogeneous in its genomic profile as well as in its response to treatments. […] Three days after treatment, RNA was isolated from the tissues and expression of ER- and AR-target genes was measured.

Test [4] concerns metastatic ER+/HER2- breast cancer. The settings on record: cited from earlier work.

Sequence of Wildtype ER-α (P03372 whole entry, species assumed): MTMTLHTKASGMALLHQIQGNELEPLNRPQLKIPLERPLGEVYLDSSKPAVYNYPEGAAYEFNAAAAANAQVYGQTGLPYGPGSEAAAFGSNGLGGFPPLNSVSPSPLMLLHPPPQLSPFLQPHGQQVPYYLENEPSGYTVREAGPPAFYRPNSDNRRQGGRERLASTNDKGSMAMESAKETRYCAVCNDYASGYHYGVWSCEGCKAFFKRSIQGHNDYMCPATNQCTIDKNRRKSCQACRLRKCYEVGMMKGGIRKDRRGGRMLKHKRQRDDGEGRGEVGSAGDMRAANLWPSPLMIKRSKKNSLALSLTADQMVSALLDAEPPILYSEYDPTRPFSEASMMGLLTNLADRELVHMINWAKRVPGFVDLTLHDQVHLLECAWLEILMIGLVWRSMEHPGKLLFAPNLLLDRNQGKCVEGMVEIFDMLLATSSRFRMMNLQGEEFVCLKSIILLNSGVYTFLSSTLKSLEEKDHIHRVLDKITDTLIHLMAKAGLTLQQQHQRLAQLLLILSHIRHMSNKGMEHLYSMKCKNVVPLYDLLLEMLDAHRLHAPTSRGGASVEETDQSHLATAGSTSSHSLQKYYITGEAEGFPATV
Sequence of HCI-13 ER-α (P03372 whole entry Y537S): as the sequence (P03372 whole entry, species assumed) above, with Y537S counted along it

As to `CNC(=O)c1ccc(N2C(=S)N(c3ccc(C#N)c(C(F)(F)F)c3)C(=O)C2(C)C)cc1F` [enzalutamide, reference compound], the tumor growth entry with BR-0001 TNBC is “indistinguishable from vehicle treatment”. In the test with HCI-7 PDX, the “tumor growth (% change in tumor volume)” value is listed as “grew comparably”. In the test with HCI-9 PDX, the tumor growth trajectory result is “Neither Formula IX nor enzalutamide altered the growth trajectory”. The “proliferation of breast cancer CAFs” value in the test with MCF-7-GFP cells (10 nM DHT, 1 μM Formula IX, 1 μM enzalutamide) was “neither AR agonist, DHT and Formula IX, nor AR antagonist enzalutamide, affected the proliferation”. Also, in the test with MCF-7-GFP cells, the “proliferation of MCF-7-GFP cells fed conditioned medium from treated CAFs” value is listed as “not”.
Consider atezolizumab: PD-L1 blocking antibody, for which the “Median progression-free survival (PFS)” value in the test with TNBC [1] is reported as 7.4 months.
For the compound pembrolizumab: PD-L1 blocking antibody, the “median PFS” value with TNBC [2] is 9.7 months.
On to `C[C@]12CC[C@@H]3c4ccc(O)cc4C[C@@H](CCCCCCCCC[S+]([O-])CCCC(F)(F)C(F)(F)F)[C@H]3[C@@H]1CC[C@@H]2O` (stereo partly shown) [fulvestrant], for which the “inhibition of ER-induced pS2 and PR gene expression” value in the test on HCI-13 tumor fragments is recorded as “ineffective”. Besides, the values for the ER activity entry on HCI-13 ER-α and on Wildtype ER-α were “not inhibited” and “inhibited”, respectively. In addition, the “specimens in which ER function was inhibited” value in test [3] is 4 of 8. In addition, the “median PFS range” value in test [4] (after failing one estrogen blocking therapy) was 4.6-9.3 months. For the same compound, in test [4] (depending on the trial), the objective response rate is listed as 10.9%-21.3%.
